Reference: the OligoGym collection
HELM strings list units from the 5' end as sugar, base in round brackets, then linkage (d deoxyribose, r ribose, m 2'-O-methyl, p phosphodiester). Strings are as the collection lists them; they lack the last nucleoside at the 3' end of the tested compound. [moe] = 2'-O-(2-methoxyethyl) (MOE); [sp] = phosphorothioate linkage; [m5C] = 5-methylcytosine

Target: PRNP
Test: mouse, dose not given
Conditions: ASO

“RNA1{[moe]([m5C])[sp].[moe](T)p.[moe](A)p.[moe](T)p.[moe](G)p.d(T)[sp].d(T)[sp].d(T)[sp].d(T)[sp].d([m5C])[sp].d([m5C])[sp].d(A)[sp].d(G)[sp].d(T)[sp].[moe](G)[sp].[moe]([m5C])p.[moe]([m5C])p.[moe]([m5C])}$$$$ (last 3' nucleoside missing)” gave a 3 h FOB score of 0.75 score 0-7.
“RNA1{[moe]([m5C])[sp].[moe](T)p.[moe](A)p.[moe](T)p.[moe](G)p.d(T)[sp].d(T)[sp].d(T)[sp].d(T)[sp].d([m5C])[sp].d([m5C])[sp].d(A)[sp].d(G)[sp].d(T)[sp].[moe](G)p.[moe]([m5C])p.[moe]([m5C])[sp].[moe]([m5C])}$$$$ (last 3' nucleoside missing)” showed a 3 h FOB score of 1 score 0-7.
With “RNA1{[moe]([m5C])[sp].[moe](T)p.[moe](A)p.[moe](T)p.d(G)[sp].d(T)[sp].d(T)[sp].d(T)[sp].d(T)[sp].d([m5C])[sp].d([m5C])[sp].d(A)[sp].d(G)[sp].d(T)[sp].[moe](G)p.[moe]([m5C])p.[moe]([m5C])p.[moe]([m5C])[sp].[moe](A)}$$$$ (last 3' nucleoside missing)” the 3 h FOB score was 1.25 score 0-7.
Substance “RNA1{[moe]([m5C])[sp].[moe](T)p.[moe](A)p.d(T)[sp].d(G)[sp].d(T)[sp].d(T)[sp].d(T)[sp].d(T)[sp].d([m5C])[sp].d([m5C])[sp].d(A)[sp].d(G)[sp].[moe](T)p.[moe](G)p.[moe]([m5C])p.[moe]([m5C])p.[moe]([m5C])[sp].[moe](A)}$$$$ (last 3' nucleoside missing)” has a 3 h FOB score of 0.25 score 0-7.
“RNA1{[moe]([m5C])[sp].[moe](T)p.[moe](G)p.[moe](G)p.[moe](T)[sp].d(G)[sp].d(A)[sp].d(T)[sp].d(T)[sp].d(T)[sp].d(T)[sp].d(T)[sp].d(T)[sp].d([m5C])[sp].d([m5C])[sp].[moe](T)p.[moe](T)p.[moe](T)[sp].[moe]([m5C])}$$$$ (last 3' nucleoside missing)” was tested, and the 3 h FOB score was 0 score 0-7.
“RNA1{[moe]([m5C])[sp].[moe](T)p.[moe](G)p.[moe](T)p.[moe](T)[sp].d(A)[sp].d(T)[sp].d(G)[sp].d(T)[sp].d(T)[sp].d(A)[sp].d(T)[sp].d(T)[sp].d(A)[sp].d(T)[sp].[moe](T)p.[moe](G)p.[moe](T)[sp].[moe](T)}$$$$ (last 3' nucleoside missing)” was tested, and the 3 h FOB score was 3.75 score 0-7.
“RNA1{[moe]([m5C])[sp].[moe](T)p.[moe](G)p.[moe](T)p.[moe](T)[sp].d(G)[sp].d([m5C])[sp].d(A)[sp].d([m5C])[sp].d(T)[sp].d(A)[sp].d(A)[sp].d(G)[sp].d(T)[sp].d([m5C])[sp].[moe]([m5C])p.[moe](A)p.[moe](A)[sp].[moe](A)}$$$$ (last 3' nucleoside missing)” gave a 3 h FOB score of 1 score 0-7.
“RNA1{[moe]([m5C])[sp].[moe](T)p.[moe](G)p.[moe](T)p.[moe]([m5C])[sp].d(A)[sp].d(T)[sp].d([m5C])[sp].d(T)[sp].d([m5C])[sp].d([m5C])[sp].d(A)[sp].d(A)[sp].d([m5C])[sp].d([m5C])[sp].[moe](T)p.[moe](A)p.[moe](A)[sp].[moe](G)}$$$$ (last 3' nucleoside missing)” gave a 3 h FOB score of 1 score 0-7.
In the case of “RNA1{[moe]([m5C])[sp].[moe](T)p.[moe](G)p.[moe]([m5C])p.[moe]([m5C])[sp].d(T)[sp].d(T)[sp].d(A)[sp].d(A)[sp].d(T)[sp].d(T)[sp].d(A)[sp].d([m5C])[sp].d([m5C])[sp].d(T)[sp].[moe](A)p.[moe](T)p.[moe](A)[sp].[moe](G)}$$$$ (last 3' nucleoside missing)”, the 3 h FOB score is reported as 0.25 score 0-7.
With “RNA1{[moe]([m5C])[sp].[moe](T)p.[moe](T)p.[moe](A)p.[moe](A)[sp].d(T)[sp].d(T)[sp].d(A)[sp].d(G)[sp].d(T)[sp].d(T)[sp].d(A)[sp].d([m5C])[sp].d(A)[sp].d(T)[sp].[moe]([m5C])p.[moe](G)p.[moe](G)[sp].[moe](G)}$$$$ (last 3' nucleoside missing)” the 3 h FOB score was 4.5 score 0-7.
“RNA1{[moe]([m5C])[sp].[moe](T)p.[moe](T)p.[moe](A)p.[moe](T)[sp].d(T)[sp].d(A)[sp].d(T)[sp].d(T)[sp].d([m5C])[sp].d(A)[sp].d(T)[sp].d(G)[sp].d(T)[sp].d(T)[sp].[moe]([m5C])p.[moe](T)p.[moe]([m5C])[sp].[moe]([m5C])}$$$$ (last 3' nucleoside missing)” showed a 3 h FOB score of 1.25 score 0-7.
With “RNA1{[moe]([m5C])[sp].[moe](T)p.[moe](T)p.[moe](A)p.[moe](T)p.d(T)[sp].d(A)[sp].d(T)[sp].d(T)[sp].d([m5C])[sp].d(A)[sp].d(T)[sp].d(G)[sp].d(T)[sp].[moe](T)p.[moe]([m5C])p.[moe](T)[sp].[moe]([m5C])}$$$$ (last 3' nucleoside missing)” the 3 h FOB score was 0 score 0-7.
With “RNA1{[moe]([m5C])[sp].[moe](T)p.[moe](T)p.[moe](A)p.[moe]([m5C])[sp].d(T)[sp].d([m5C])[sp].d(G)[sp].d(G)[sp].d([m5C])[sp].d(T)[sp].d(T)[sp].d(G)[sp].d(T)[sp].d(T)[sp].[moe]([m5C])p.[moe]([m5C])p.[moe](A)[sp].[moe]([m5C])}$$$$ (last 3' nucleoside missing)” the 3 h FOB score was 0 score 0-7.
“RNA1{[moe]([m5C])[sp].[moe](T)p.[moe](T)p.[moe](A)p.[moe]([m5C])p.d(T)[sp].d([m5C])[sp].d(G)[sp].d(G)[sp].d([m5C])[sp].d(T)[sp].d(T)[sp].d(G)[sp].d(T)[sp].[moe](T)p.[moe]([m5C])p.[moe]([m5C])[sp].[moe](A)}$$$$ (last 3' nucleoside missing)” showed a 3 h FOB score of 1.75 score 0-7.
Substance “RNA1{[moe]([m5C])[sp].[moe](T)p.[moe](T)p.[moe](T)p.[moe](T)[sp].d([m5C])[sp].d(T)[sp].d(T)[sp].d(T)[sp].d(G)[sp].d([m5C])[sp].d(A)[sp].d([m5C])[sp].d(A)[sp].d([m5C])[sp].[moe](T)p.[moe](G)p.[moe](A)[sp].[moe]([m5C])}$$$$ (last 3' nucleoside missing)” has a 3 h FOB score of 4 score 0-7.
Substance “RNA1{[moe]([m5C])[sp].[moe](T)p.[moe](T)p.[moe](T)p.[moe]([m5C])[sp].d([m5C])[sp].d(T)[sp].d(G)[sp].d(A)[sp].d(T)[sp].d(A)[sp].d(G)[sp].d(T)[sp].d(T)[sp].d([m5C])[sp].[moe](A)p.[moe]([m5C])p.[moe](T)[sp].[moe](G)}$$$$ (last 3' nucleoside missing)” has a 3 h FOB score of 2.5 score 0-7.
“RNA1{[moe]([m5C])[sp].[moe](T)p.[moe]([m5C])p.[moe](A)p.[moe](G)[sp].d(G)[sp].d(T)[sp].d([m5C])[sp].d(T)[sp].d(A)[sp].d([m5C])[sp].d(T)[sp].d([m5C])[sp].d(T)[sp].d(A)[sp].[moe](T)p.[moe](G)p.[moe](T)[sp].[moe](T)}$$$$ (last 3' nucleoside missing)” gave a 3 h FOB score of 0 score 0-7.
“RNA1{[moe]([m5C])[sp].[moe](T)p.[moe]([m5C])p.[moe](T)p.[moe](A)[sp].d(T)[sp].d(G)[sp].d(T)[sp].d(T)[sp].d(T)[sp].d(T)[sp].d([m5C])[sp].d([m5C])[sp].[moe](A)p.[moe](G)p.[moe](T)[sp].[moe](G)}$$$$ (last 3' nucleoside missing)” gave a 3 h FOB score of 0.75 score 0-7.
